Experiment: xn = mol fraction of the nth substance listed
Conditions: 101 kPa, Liquid; for speed of sound: Frequency=2 MHz, Linear variable-path acoustic interferometer; for mass density: Vibrating tube method

CCCCO [butan-1-ol] + Cc1ccccc1Cl
x2 = 0
Conditions | mass density [kg/m3] | speed of sound [m/s]
298.15 K | 805.95 | 1238.9
303.15 K | 802.11 | 1223.4
308.15 K | 798.24 | 1206.8

Cc1ccccc1Cl [2-chlorotoluene] + CCCCCCCO
Conditions | mass density, 298.15 K [kg/m3] | mass density, 303.15 K [kg/m3] | mass density, 308.15 K [kg/m3] | speed of sound, 298.15 K [m/s] | speed of sound, 303.15 K [m/s] | speed of sound, 308.15 K [m/s]
x1 = 0.0984 | 840.51 | 836.79 | 833.05 | 1324.4 | 1311 | 1289.7
x1 = 0.1921 | 861.75 | 857.88 | 853.98 | 1320.1 | 1306 | 1284
x1 = 0.2969 | 886.24 | 882.16 | 878.15 | 1313.6 | 1298.6 | 1276.2
x1 = 0.3983 | 910.69 | 906.43 | 902.26 | 1306.5 | 1290.7 | 1268.5
x1 = 0.4949 | 934.8 | 930.38 | 926.11 | 1299.3 | 1283.1 | 1260.9
x1 = 0.5961 | 960.97 | 956.41 | 952.02 | 1293.5 | 1276.2 | 1254.8
x1 = 0.7028 | 989.68 | 985.06 | 980.6 | 1289.2 | 1271.5 | 1250.4
x1 = 0.7968 | 1016.16 | 1011.5 | 1006.94 | 1287.7 | 1270.3 | 1249.7
x1 = 0.8993 | 1046.27 | 1041.59 | 1036.99 | 1289.1 | 1273.5 | 1254.3
x1 = 1 | 1077.38 | 1072.8 | 1068.21 | 1299.8 | 1283.6 | 1265.6

CCCCCCO [hexan-1-ol] + Cc1ccccc1Cl
x2 = 0
Conditions | mass density [kg/m3] | speed of sound [m/s]
298.15 K | 815.31 | 1303.2
303.15 K | 811.7 | 1286.4
308.15 K | 808.06 | 1269.7

CCCCCO [pentan-1-ol] + Cc1ccccc1Cl
x2 = 0
Conditions | mass density [kg/m3] | speed of sound [m/s]
298.15 K | 810.82 | 1276.2
303.15 K | 807.1 | 1259.5
308.15 K | 803.38 | 1248.1

From the NIST ThermoML archive (doi:10.1016/j.jct.2013.08.013)
